{"source": "patent US12479895B2", "about": "“C-terminal CDNF and MANF fragments, pharmaceutical compositions comprising same and uses thereof” (MyNeuroCure Oy, priority 2018, dated 2025)", "key": {"dopamine neurons": {"system": "dopamine neurons", "test": "Survival of TH-positive dopamine neurons in dissociated midbrain floor cultures", "format": "cell-based, mouse", "settings": "for Fold change of survived neurons compared to neurons grown without growth factors: data of Table 3 divided by values of no factor", "description": "To study the dopamine neurons (Yu et al., 2008; Yu and Arumae, 2008), the midbrain floors were dissected from the ventral mesencephali of 13.5-d-old NMRI strain mouse embryos. Tissues were incubated with 0.5% trypsin (ICN Biomedical), then mechanically dissociated using a large fire-polished Pasteur pipette. The neurons were grown on the poly-L-ornithine-coated (Sigma) 96-well culture plates in DMEM/F12 medium (Invitrogen) containing N2 supplement (Invitrogen) in the presence or absence of GDNF (100 ng/ml) or with CDNF, MANF, C-CDNF and C-MANF polypeptides at different concentrations for five days. Same amount of the neurons were plated to each well at the beginning of the experiments. The cultures without added neurotrophic factors served as the negative control. As the midbrain cultures contain several neuronal types, the cultures were fixed and immunostained with the antibodies to tyrosine hydroxylase (TH) (Millipore), a specific marker for the dopaminergic neurons. Images of each well were scanned by CellInsight™ and immunopositive neurons were counted by CellProfiler and CellProfiler analyst software. Data are expressed as a percentage of GDNF-maintained TH-positive neurons. All experiments were repeated at least three times on the independent cultures. The results were expressed as the mean the SEM and were tested for the significance by either one-way ANOVA and Tukey's post hoc test or by two-tailed Student's t-test. The null hypothesis was rejected at P≤0.05."}, "ER stressed SCG neurons": {"system": "ER stressed SCG neurons", "test": "Survival of tunicamycin-treated (ER stressed) SCG sympathetic neurons after microinjection", "format": "cell-based, mice", "settings": "for survived neurons as % compared to neurons grown in the presence of NGF: microinjected into cytoplasm, CDNF (400); for Fold change of survived neurons compared to neurons injected with PBS: data of Table 1 divided by values of PBS", "description": "Non-neuronal cells were removed by extensive preplating. Almost pure neurons were cultured in polyornithine/laminin (Sigma)-coated 35-mm plastic dishes in the small-size standard microislands in the Neurobasal medium and B27 supplement (Invitrogen/Gibco) in the presence of 30 ng/ml mouse nerve growth factor (NGF) (Promega) for 5-6 days. NGF was deprived by extensive washing and addition of the function-blocking anti-NGF antibodies (Roche). The neurons were pressure-microinjected with special neuronal microinjection equipment (Hellman et al., 2011; Hamner et al., 2001; Lindholm et al., 2002; Sun et al., 2001; Yu et al., 2003)(Sun et al., 2001; Sun et al., 2003). For the survival assay, all neurons on the microislands were counted in the beginning (initial number) and the end (three days) of the experiment and expressed as % of initial.\nMicroinjection of the sympathetic neurons was performed as described earlier (Yu, L. Y., Jokitalo, E., Sun, Y. F., Mehlen, P., Lindholm, D., Saarma, M., and Arumae, U. (2003) J Cell Biol. 163, 987-997). Plasmids for CDNF have been described earlier. Briefly, newborn mouse SCG neurons were grown with NGF (Promega) for 5-6 days then the nuclei were microinjected with the expression plasmids for full-length (FL)-CDNF and C-CDNF together with a reporter plasmid for enhanced green fluorescent protein (EGFP), using vector concentration of 10 ng/ul in each experiment. […] For protein microinjection, recombinant full length (FL)-CDNF, C-CDNF proteins in PBS at 200 ng/ul were microinjected directly into the cytoplasm together with fluorescent reporter Dextran Texas Red (MW 70000 Da) (Invitrogen, Molecular Probes) that facilitates identification of the successfully injected neurons. Next day tunicamycin (2 μM) was added, and after 3 days the living fluorescent neurons were counted. Living fluorescent (EGFP-expressing or Dextran Texas Red-containing) neurons were “blindly” counted three days later and expressed as percent of initial living fluorescent neurons counted 2-3 hours after microinjection. The experiments with plasmids were repeated on independent cultures 5 times for plasmid experiment, whereas four independent protein injection experiments were performed. On average, 50-80 neurons were successfully injected per experimental group. The results were expressed as the mean±the SEM. Data of each experimental group was compared with control plasmid PCR3.1 (vector) or PBS (in the protein injection experiments) by one-way ANOVA and post hoc Dunnett's t test. The null hypothesis was rejected at p<0.05."}}}
{"sequence": "VDLRKMRVAELKQILHSWGEECRACAEKTDYVNLIQELAPKYA (listed as Homo sapiens) [pep6]", "values": [{"measurement": "survived neurons as % compared to neurons grown in the presence of GDNF", "setting": "dopamine neurons; Table 3A (FIG. 15), AVG, 1 ng/ml, 5 days", "value": 65.97, "unit": "% GDNF"}, {"measurement": "survived neurons as % compared to neurons grown in the presence of GDNF", "setting": "dopamine neurons; Table 3A (FIG. 15), AVG, 10 ng/ml, 5 days", "value": 75.95, "unit": "% GDNF"}, {"measurement": "survived neurons as % compared to neurons grown in the presence of GDNF", "setting": "dopamine neurons; Table 3A (FIG. 15), AVG, 100 ng/ml, 5 days", "value": 73.52, "unit": "% GDNF"}, {"measurement": "survived neurons as % compared to neurons grown in the presence of GDNF", "setting": "dopamine neurons; Table 3A (FIG. 15), AVG, 1000 ng/ml, 5 days", "value": 70.75, "unit": "% GDNF"}, {"measurement": "survived neurons as % compared to neurons grown in the presence of GDNF", "setting": "dopamine neurons; Table 3A (FIG. 15), exp1, 1 ng/ml, 5 days", "value": 62.89, "unit": "% GDNF"}, {"measurement": "survived neurons as % compared to neurons grown in the presence of GDNF", "setting": "dopamine neurons; Table 3A (FIG. 15), exp1, 10 ng/ml, 5 days", "value": 66.29, "unit": "% GDNF"}, {"measurement": "survived neurons as % compared to neurons grown in the presence of GDNF", "setting": "dopamine neurons; Table 3A (FIG. 15), exp1, 100 ng/ml, 5 days", "value": 71.71, "unit": "% GDNF"}, {"measurement": "survived neurons as % compared to neurons grown in the presence of GDNF", "setting": "dopamine neurons; Table 3A (FIG. 15), exp1, 1000 ng/ml, 5 days", "value": 63.01, "unit": "% GDNF"}, {"measurement": "survived neurons as % compared to neurons grown in the presence of GDNF", "setting": "dopamine neurons; Table 3A (FIG. 15), exp2, 1 ng/ml, 5 days", "value": 77.34, "unit": "% GDNF"}, {"measurement": "survived neurons as % compared to neurons grown in the presence of GDNF", "setting": "dopamine neurons; Table 3A (FIG. 15), exp2, 10 ng/ml, 5 days", "value": 83.75, "unit": "% GDNF"}, {"measurement": "survived neurons as % compared to neurons grown in the presence of GDNF", "setting": "dopamine neurons; Table 3A (FIG. 15), exp2, 100 ng/ml, 5 days", "value": 71.86, "unit": "% GDNF"}, {"measurement": "survived neurons as % compared to neurons grown in the presence of GDNF", "setting": "dopamine neurons; Table 3A (FIG. 15), exp2, 1000 ng/ml, 5 days", "value": 67.06, "unit": "% GDNF"}, {"measurement": "survived neurons as % compared to neurons grown in the presence of GDNF", "setting": "dopamine neurons; Table 3A (FIG. 15), exp3, 1 ng/ml, 5 days", "value": 57.68, "unit": "% GDNF"}, {"measurement": "survived neurons as % compared to neurons grown in the presence of GDNF", "setting": "dopamine neurons; Table 3A (FIG. 15), exp3, 10 ng/ml, 5 days", "value": 77.81, "unit": "% GDNF"}, {"measurement": "survived neurons as % compared to neurons grown in the presence of GDNF", "setting": "dopamine neurons; Table 3A (FIG. 15), exp3, 100 ng/ml, 5 days", "value": 76.97, "unit": "% GDNF"}, {"measurement": "survived neurons as % compared to neurons grown in the presence of GDNF", "setting": "dopamine neurons; Table 3A (FIG. 15), exp3, 1000 ng/ml, 5 days", "value": 82.17, "unit": "% GDNF"}, {"measurement": "Fold change of survived neurons compared to neurons grown without growth factors", "setting": "dopamine neurons; Table 4, AVG, 1 ng/ml", "value": 1.07, "unit": "fold"}, {"measurement": "Fold change of survived neurons compared to neurons grown without growth factors", "setting": "dopamine neurons; Table 4, AVG, 10 ng/ml", "value": 1.23, "unit": "fold"}, {"measurement": "Fold change of survived neurons compared to neurons grown without growth factors", "setting": "dopamine neurons; Table 4, AVG, 100 ng/ml", "value": 1.19, "unit": "fold"}, {"measurement": "Fold change of survived neurons compared to neurons grown without growth factors", "setting": "dopamine neurons; Table 4, AVG, 1000 ng/ml", "value": 1.15, "unit": "fold"}, {"measurement": "Fold change of survived neurons compared to neurons grown without growth factors", "setting": "dopamine neurons; Table 4, exp1, 1 ng/ml", "value": 1.10, "unit": "fold"}, {"measurement": "Fold change of survived neurons compared to neurons grown without growth factors", "setting": "dopamine neurons; Table 4, exp1, 10 ng/ml", "value": 1.16, "unit": "fold"}, {"measurement": "Fold change of survived neurons compared to neurons grown without growth factors", "setting": "dopamine neurons; Table 4, exp1, 100 ng/ml", "value": 1.25, "unit": "fold"}, {"measurement": "Fold change of survived neurons compared to neurons grown without growth factors", "setting": "dopamine neurons; Table 4, exp1, 1000 ng/ml", "value": 1.10, "unit": "fold"}, {"measurement": "Fold change of survived neurons compared to neurons grown without growth factors", "setting": "dopamine neurons; Table 4, exp2, 1 ng/ml", "value": 1.23, "unit": "fold"}, {"measurement": "Fold change of survived neurons compared to neurons grown without growth factors", "setting": "dopamine neurons; Table 4, exp2, 10 ng/ml", "value": 1.33, "unit": "fold"}, {"measurement": "Fold change of survived neurons compared to neurons grown without growth factors", "setting": "dopamine neurons; Table 4, exp2, 100 ng/ml", "value": 1.14, "unit": "fold"}, {"measurement": "Fold change of survived neurons compared to neurons grown without growth factors", "setting": "dopamine neurons; Table 4, exp2, 1000 ng/ml", "value": 1.06, "unit": "fold"}, {"measurement": "Fold change of survived neurons compared to neurons grown without growth factors", "setting": "dopamine neurons; Table 4, exp3, 1 ng/ml", "value": 0.89, "unit": "fold"}, {"measurement": "Fold change of survived neurons compared to neurons grown without growth factors", "setting": "dopamine neurons; Table 4, exp3, 10 ng/ml", "value": 1.20, "unit": "fold"}, {"measurement": "Fold change of survived neurons compared to neurons grown without growth factors", "setting": "dopamine neurons; Table 4, exp3, 100 ng/ml", "value": 1.19, "unit": "fold"}, {"measurement": "Fold change of survived neurons compared to neurons grown without growth factors", "setting": "dopamine neurons; Table 4, exp3, 1000 ng/ml", "value": 1.27, "unit": "fold"}, {"measurement": "survived neurons as % compared to neurons grown in the presence of NGF", "setting": "ER stressed SCG neurons; Table 1A (FIG. 14), AVG of exp1-2, tunicamycin 2 μM", "value": 78.47, "unit": "% NGF"}, {"measurement": "survived neurons as % compared to neurons grown in the presence of NGF", "setting": "ER stressed SCG neurons; Table 1A (FIG. 14), exp1, tunicamycin 2 μM, counted after 3 days", "value": 81.94, "unit": "% NGF"}, {"measurement": "survived neurons as % compared to neurons grown in the presence of NGF", "setting": "ER stressed SCG neurons; Table 1A (FIG. 14), exp2, tunicamycin 2 μM, counted after 3 days", "value": 75.00, "unit": "% NGF"}, {"measurement": "Fold change of survived neurons compared to neurons injected with PBS", "setting": "ER stressed SCG neurons; Table 2, AVG", "value": "2.14 Fold to PBS"}, {"measurement": "Fold change of survived neurons compared to neurons injected with PBS", "setting": "ER stressed SCG neurons; Table 2, exp1", "value": "2.39 Fold to PBS"}, {"measurement": "Fold change of survived neurons compared to neurons injected with PBS", "setting": "ER stressed SCG neurons; Table 2, exp2", "value": "1.89 Fold to PBS"}]}
{"sequence": "TLDLASVDLRKMRVAELKQILHSWGEECRACAEKTDYVNLIQEPAPKYA (Mutated C-CDNF peptide) [pep13]", "values": [{"measurement": "survived neurons as % compared to neurons grown in the presence of GDNF", "setting": "dopamine neurons; Table 3B (FIG. 17), AVG, 1 ng/ml, 5 days", "value": 71.07, "unit": "% GDNF"}, {"measurement": "survived neurons as % compared to neurons grown in the presence of GDNF", "setting": "dopamine neurons; Table 3B (FIG. 17), AVG, 10 ng/ml, 5 days", "value": 86.81, "unit": "% GDNF"}, {"measurement": "survived neurons as % compared to neurons grown in the presence of GDNF", "setting": "dopamine neurons; Table 3B (FIG. 17), AVG, 100 ng/ml, 5 days", "value": 88.07, "unit": "% GDNF"}, {"measurement": "survived neurons as % compared to neurons grown in the presence of GDNF", "setting": "dopamine neurons; Table 3B (FIG. 17), AVG, 1000 ng/ml, 5 days", "value": 85.36, "unit": "% GDNF"}, {"measurement": "protection of dopaminergic neurons in culture (result in words)", "setting": "dopamine neurons; added to the culture medium, 5 days, TH-positive neurons counted", "value": "best protective effect"}, {"measurement": "survived neurons as % compared to neurons grown in the presence of NGF", "setting": "ER stressed SCG neurons; Table 1B (FIG. 16), exp1, tunicamycin 2 μM, counted after 3 days", "value": 77.41, "unit": "% NGF"}, {"measurement": "survived neurons as % compared to neurons grown in the presence of NGF", "setting": "ER stressed SCG neurons; Table 1B (FIG. 16), exp2, tunicamycin 2 μM, counted after 3 days", "value": 72.46, "unit": "% NGF"}, {"measurement": "survived neurons as % compared to neurons grown in the presence of NGF", "setting": "ER stressed SCG neurons; Table 1B (FIG. 16), exp3, tunicamycin 2 μM, counted after 3 days", "value": 80.39, "unit": "% NGF"}, {"measurement": "rescue of ER stressed SCG neurons (result in words)", "setting": "ER stressed SCG neurons; protein or peptide microinjected into the cytoplasm, tunicamycin 2 μM, living fluorescent neurons counted after 3 days", "value": "rescue"}]}
